The compounds below were run against T1, F508del (Homo sapiens, UniProt P13569, DEL508-508) (assay: Protocol 2: FRET membrane potential optical assay (VIPR), identification of correction compounds). Conditions: Table 3; compounds of Table 1 as modulators of CFTR activity; protocol not stated.
T1 construct: expressed in transfected cells
Type: cell-based
Method in brief: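 Corrector readout: membrane-potential FRET (CC2-DMPE donor, DiSBAC2(3) acceptor) on VIPR II after Cl⁻-free gluconate bath with 10 μM forskolin and 20 μM genistein. Before this, F508del-expressing NIH3T3 cells were exposed to test compound for 16 h at 37 °C without serum; 27 °C incubation served as temperature-correction control.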

T1 sequence (P13569 with tags, fused parts or gaps DEL508-508): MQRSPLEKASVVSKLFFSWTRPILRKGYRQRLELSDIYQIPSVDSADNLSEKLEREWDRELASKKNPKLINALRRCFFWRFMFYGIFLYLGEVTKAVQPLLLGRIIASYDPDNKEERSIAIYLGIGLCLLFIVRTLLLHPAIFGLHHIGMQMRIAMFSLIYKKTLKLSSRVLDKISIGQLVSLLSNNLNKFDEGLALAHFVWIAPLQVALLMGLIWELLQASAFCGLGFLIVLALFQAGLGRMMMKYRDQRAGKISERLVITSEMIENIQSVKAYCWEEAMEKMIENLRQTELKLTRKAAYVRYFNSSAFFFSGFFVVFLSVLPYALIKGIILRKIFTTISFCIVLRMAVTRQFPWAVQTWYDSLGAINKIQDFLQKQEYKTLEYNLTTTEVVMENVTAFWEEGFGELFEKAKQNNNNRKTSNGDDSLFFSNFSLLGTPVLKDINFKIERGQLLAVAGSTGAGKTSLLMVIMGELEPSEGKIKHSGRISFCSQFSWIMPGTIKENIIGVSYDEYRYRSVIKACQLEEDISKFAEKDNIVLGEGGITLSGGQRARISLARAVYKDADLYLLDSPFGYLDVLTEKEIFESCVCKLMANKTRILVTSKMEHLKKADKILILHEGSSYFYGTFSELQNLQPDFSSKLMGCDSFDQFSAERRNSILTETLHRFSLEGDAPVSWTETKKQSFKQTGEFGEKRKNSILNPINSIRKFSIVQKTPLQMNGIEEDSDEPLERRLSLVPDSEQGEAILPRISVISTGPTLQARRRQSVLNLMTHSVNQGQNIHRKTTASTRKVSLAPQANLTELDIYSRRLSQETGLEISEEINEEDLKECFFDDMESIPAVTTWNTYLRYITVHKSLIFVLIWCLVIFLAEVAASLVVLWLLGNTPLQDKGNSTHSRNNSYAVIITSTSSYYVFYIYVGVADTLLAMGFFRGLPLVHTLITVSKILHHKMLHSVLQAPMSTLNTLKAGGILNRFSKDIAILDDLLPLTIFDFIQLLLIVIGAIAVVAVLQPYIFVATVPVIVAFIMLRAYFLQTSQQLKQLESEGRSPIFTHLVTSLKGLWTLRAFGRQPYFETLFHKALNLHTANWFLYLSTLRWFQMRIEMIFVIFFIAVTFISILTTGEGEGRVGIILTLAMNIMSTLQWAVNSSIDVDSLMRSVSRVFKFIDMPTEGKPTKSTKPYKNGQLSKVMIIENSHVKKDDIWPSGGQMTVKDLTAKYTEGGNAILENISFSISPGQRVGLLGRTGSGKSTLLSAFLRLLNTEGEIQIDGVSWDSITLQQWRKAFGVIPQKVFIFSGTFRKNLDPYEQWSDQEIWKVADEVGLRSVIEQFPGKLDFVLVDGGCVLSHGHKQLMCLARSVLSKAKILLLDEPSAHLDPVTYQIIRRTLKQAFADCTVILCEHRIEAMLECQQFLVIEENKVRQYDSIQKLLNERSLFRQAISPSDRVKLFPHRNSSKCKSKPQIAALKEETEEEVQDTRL

Row | Structure (SMILES) | EC30
1 | CC(C)COc1cc(F)cc(-c2ccc(C(=O)NS(=O)(=O)c3cccc(N)n3)c(N3CC(C)CC3C)n2)c1 (stereo not drawn) [Compound 587, N-[(6-amino-2-pyridyl)sulfonyl]-2-(2,4-dimethylpyrrolidin-1-yl)-6-(3-fluoro-5-isobutoxy-phenyl)pyridine-3-carboxamide] | +++ (“+++” means <3 uM)
2 | Cc1ccc(Oc2nc(-c3cc(F)cc(OCC(C)C)c3)ccc2C(=O)NS(=O)(=O)c2cccc(N)n2)c(C)c1 [Compound 590, N-[(6-amino-2-pyridyl)sulfonyl]-2-(2,4-dimethylphenoxy)-6-(3-fluoro-5-isobutoxy-phenyl)pyridine-3-carboxamide] | +++ (“+++” means <3 uM)
3 | CC[C@@H]1CCCN1c1nc(-c2cc(F)cc(OCC(C)C)c2)ccc1C(=O)NS(=O)(=O)c1ccn[nH]1 [Compound 591, 2-(2-ethylpyrrolidin-1-yl)-6-(3-fluoro-5-isobutoxy-phenyl)-N-(1H-pyrazol-5-ylsulfonyl)pyridine-3-carboxamide] | +++ (“+++” means <3 uM)
4 | CC(C)COc1cc(F)cc(-c2ccc(C(=O)NS(=O)(=O)c3cccc(N)n3)c(N3CCCC3)n2)c1 [Compound 592, N-[(6-amino-2-pyridyl)sulfonyl]-6-(3-fluoro-5-isobutoxy-phenyl)-2-pyrrolidin-1-yl-pyridine-3-carboxamide] | +++ (“+++” means <3 uM)
5 | CC(C)COc1cc(F)cc(-c2ccc(C(=O)NS(=O)(=O)c3cccc(N)n3)c(N3CCCC3C3CC3)n2)c1 (stereo not drawn) [Compound 593, N-[(6-amino-2-pyridyl)sulfonyl]-2-(2-cyclopropylpyrrolidin-1-yl)-6-(3-fluoro-5-isobutoxy-phenyl)pyridine-3-carboxamide] | +++ (“+++” means <3 uM)

Further lines, results first:

Row | EC30 | Structure (SMILES)
6 | ++ (“++” means between 3 uM and 10 uM) | CC(C)Oc1ccc(-c2ccc(C(=O)NS(=O)(=O)c3cccc(N)n3)c(N3CCc4ccccc43)n2)cn1 [Compound 588, N-[(6-amino-2-pyridyl)sulfonyl]-2-indolin-1-yl-6-(6-isopropoxy-3-pyridyl)pyridine-3-carboxamide]
7 | +++ (“+++” means <3 uM) | CC(C)c1ccc(-c2ccc(C(=O)NS(=O)(=O)c3ccc[nH]c3=O)c(N3[C@H](C)CC[C@@H]3C)n2)cc1 [Compound 589, 2-[(2S,5R)-2,5-dimethylpyrrolidin-1-yl]-6-(4-isopropylphenyl)-N-[(2-oxo-1H-pyridin-3-yl)sulfonyl]pyridine-3-carboxamide]
8 | ++ (“++” means between 3 uM and 10 uM) | Cc1cc(C)c(Oc2nc(C)ccc2C(=O)NS(=O)(=O)c2cccc(NC3CC3)n2)c(C)c1 [Compound 594, N-[[6-(cyclopropylamino)-2-pyridyl]sulfonyl]-6-methyl-2-(2,4,6-trimethylphenoxy)pyridine-3-carboxamide]
9 | +++ (“+++” means <3 uM) | Cc1cc(C)c(Oc2nc(-c3ccccc3)ccc2C(=O)NS(=O)(=O)c2cccc(NCCO)n2)c(C)c1 [Compound 595, N-[[6-(2-hydroxyethylamino)-2-pyridyl]sulfonyl]-6-phenyl-2-(2,4,6-trimethylphenoxy)pyridine-3-carboxamide]
10 | ++ (“++” means between 3 uM and 10 uM) | CC(C)Oc1ccc(-c2ccc(C(=O)NS(=O)(=O)c3cccc(N)n3)c(N3CC4C(C3)C4(C)C)n2)cn1 (stereo not drawn) [Compound 596, N-[(6-amino-2-pyridyl)sulfonyl]-2-(6,6-dimethyl-3-azabicyclo[3.1.0]hexan-3-yl)-6-(6-isopropoxy-3-pyridyl)pyridine-3-carboxamide]
11 | +++ (“+++” means <3 uM) | CC(C)Oc1ccc(-c2ccc(C(=O)NS(=O)(=O)c3cccc(N)n3)c(N3CCCC3C(C)(C)C)n2)cn1 (stereo not drawn) [Compound 597, N-[(6-amino-2-pyridyl)sulfonyl]-2-(2-tert-butylpyrrolidin-1-yl)-6-(6-isopropoxy-3-pyridyl)pyridine-3-carboxamide]
12 | ++ (“++” means between 3 uM and 10 uM) | COc1cc2cc(C(=O)NS(=O)(=O)c3cccc(N)c3)n(Cc3c(C)cc(C)cc3C)c2cc1OC [Compound 598, N-(3-aminophenyl)sulfonyl-5,6-dimethoxy-1-[(2,4,6-trimethylphenyl)methyl]indole-2-carboxamide]

— US10758534B2 (Vertex Pharmaceuticals Incorporated, priority 2014, dated 2020)
